How the values were obtained:
[1] = test system: ABUTH; assay: Pre-emergence herbicidal action against ABUTH; assay type: in vivo, Abutilon theophrasti; settings: for Pre-emergence action against ABUTH (herbicidal activity): 80 g/ha, scored visually after 3 weeks vs untreated controls (100% = plants have died, 0% = like control plants); for Pre-emergence action against ABUTH (herbicidal activity in percent): dosage 20 g/ha, scored visually after 3 weeks vs untreated controls, 100% = plants have died, 0% = like control plants
In short: (§1)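 Pre-emergence soil-surface spray of formulated compound (WP or EC; 600 to 800 l/ha; 0.2% wetting agent) over seeds sown in sandy loam. After 3 weeks under greenhouse conditions, damage is estimated visually in percent against untreated plants.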

[2] = test system: ALOMY; assay: Pre-emergence herbicidal action against ALOMY; assay type: in vivo, Alopecurus myosuroides; settings: 80 g/ha, pre-emergence, scored visually after 3 weeks vs untreated controls (100% = plants have died, 0% = like control plants)
In short: as §1

[3] = test system: AMARE; assay: Pre-emergence herbicidal action against AMARE; assay type: in vivo, Amaranthus retroflexus
In short: as §1

[4] = test system: AVEFA; assay: Pre-emergence herbicidal action against AVEFA; assay type: in vivo, Avena fatua; settings: 80 g/ha, pre-emergence
In short: as §1

[5] = test system: ECHCG; assay: Pre-emergence herbicidal action against ECHCG; assay type: in vivo, Echinochloa crus-galli; settings: 80 g/ha
In short: as §1

[6] = test system: MATIN; assay: Pre-emergence herbicidal action against MATIN; assay type: in vivo, Matricaria inodora
In short: as §1

[7] = test system: PHBPU; assay: Pre-emergence herbicidal action against PHBPU; assay type: in vivo, Pharbitis purpurea; settings: dosage 80 g/ha
In short: as §1

[8] = test system: POLCO; assay: Pre-emergence herbicidal action against POLCO; assay type: in vivo, Polygonum convolvulus; settings: dosage 80 g/ha
In short: as §1

[9] = test system: SETVI; assay: Pre-emergence herbicidal action against SETVI; assay type: in vivo, Setaria viridis; settings: dosage 80 g/ha
In short: as §1

[10] = test system: VERPE; assay: Pre-emergence herbicidal action against VERPE; assay type: in vivo, Veronica persica; settings: dosage 80 g/ha
In short: as §1

[11] = test system: VIOTR; assay: Pre-emergence herbicidal action against VIOTR; assay type: in vivo, Viola tricolor
In short: as §1

[12] = test system: DIGSA; assay: Pre-emergence herbicidal action against DIGSA; assay type: in vivo, Digitaria sanguinalis
In short: as §1

[13] = test system: ABUTH; assay: Post-emergence herbicidal action against ABUTH; assay type: in vivo, Abutilon theophrasti; settings: visual assessment about 3 weeks after treatment vs untreated controls
In short: (§2)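 Greenhouse plants in sandy loam were sprayed at the one-leaf stage, 2 to 3 weeks after sowing, with WP or EC formulations as aqueous suspension or emulsion (600 to 800 l/ha water, 0.2% wetting agent). Visual damage was scored about 3 weeks later versus untreated controls, 0% = like control, 100% = dead.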

[14] = test system: ALOMY; assay: Post-emergence herbicidal action against ALOMY; assay type: in vivo, Alopecurus myosuroides; settings: dosage 20 g/ha, visual assessment about 3 weeks after treatment vs untreated controls
In short: as §2

[15] = test system: AMARE; assay: Post-emergence herbicidal action against AMARE; assay type: in vivo, Amaranthus retroflexus; settings: 20 g/ha, visual assessment about 3 weeks after treatment, 100% = plants have died, 0% = like control plants
In short: as §2

[16] = test system: ECHCG; assay: Post-emergence herbicidal action against ECHCG; assay type: in vivo, Echinochloa crus-galli; settings: dosage 20 g/ha
In short: as §2

[17] = test system: MATIN; assay: Post-emergence herbicidal action against MATIN; assay type: in vivo, Matricaria inodora
In short: as §2

[18] = test system: PHBPU; assay: Post-emergence herbicidal action against PHBPU; assay type: in vivo, Pharbitis purpurea
In short: as §2

[19] = test system: SETVI; assay: Post-emergence herbicidal action against SETVI; assay type: in vivo, Setaria viridis
In short: as §2

[20] = test system: DIGSA; assay: Post-emergence herbicidal action against DIGSA; assay type: in vivo, Digitaria sanguinalis; settings: for Post-emergence action against DIGSA in %: 5 g/ha; for Post-emergence action against DIGSA: 20 g/ha
In short: as §2

[21] = test system: VERPE; assay: Post-emergence herbicidal action against VERPE; assay type: in vivo, Veronica persica
In short: as §2

[22] = test system: VIOTR; assay: Post-emergence herbicidal action against VIOTR; assay type: in vivo, Viola tricolor
In short: as §2

[23] = 20 g/ha, scored visually after 3 weeks vs untreated controls, 100% = plants have died, 0% = like control plants
[24] = 80 g/ha, scored visually after 3 weeks vs untreated controls (100% = plants have died, 0% = like control plants)

CCn1nnnc1NC(=O)c1ccc(C(F)F)c(C(=O)NCC(F)F)c1C [Example 2-49]
90%: Pre-emergence action against ALOMY (herbicidal activity) [2] | Pre-emergence action against ECHCG in % [5] | Pre-emergence action against POLCO in % [8] | Pre-emergence action against VIOTR in % ([11]; dosage 20 g/ha) | Post-emergence action against ABUTH in % ([13]; dosage 5 g/ha) | Post-emergence action against ABUTH in % ([13]; dosage 20 g/ha) | Post-emergence action against ECHCG in % [16] | Post-emergence action against PHBPU in % ([18]; dosage 20 g/ha) | Post-emergence action against SETVI in % ([19]; dosage 20 g/ha) | Post-emergence action against DIGSA in % [20] | Post-emergence action against DIGSA [20]
80%: Pre-emergence action against AVEFA in % [4] | Pre-emergence action against PHBPU in % [7] | Post-emergence action against ALOMY in % [14] | Post-emergence action against MATIN in % ([17]; dosage 5 g/ha) | Post-emergence action against MATIN in % ([17]; dosage 20 g/ha) | Post-emergence action against PHBPU in % ([18]; dosage 5 g/ha)
100%: Pre-emergence action against ABUTH (herbicidal activity) [1] | Pre-emergence action against ABUTH (herbicidal activity in percent) [1] | Pre-emergence action against AMARE in % [3, 23] | Pre-emergence action against AMARE in % [3, 24] | Pre-emergence action against MATIN in % ([6]; dosage 20 g/ha) | Pre-emergence action against MATIN in % ([6]; dosage 80 g/ha) | Pre-emergence action against SETVI in % [9] | Pre-emergence action against VERPE in % [10] | Pre-emergence action against VIOTR in % ([11]; dosage 80 g/ha) | Pre-emergence action against DIGSA in % ([12]; dosage 20 g/ha) | Pre-emergence action against DIGSA in % ([12]; dosage 80 g/ha) | Post-emergence action at 20 g/ha against AMARE in % [15]

CCc1c(C(=O)Nc2nnnn2CC)ccc(C(F)F)c1C(=O)NC [Example 2-277]
80%: Pre-emergence action against PHBPU in % [7] | Pre-emergence action against SETVI in % [9] | Post-emergence action against ABUTH in % ([13]; dosage 5 g/ha) | Post-emergence action against VERPE in % ([21]; 5 g/ha)
90%: Pre-emergence action against ABUTH (herbicidal activity in percent) [1] | Pre-emergence action against ECHCG in % [5] | Pre-emergence action against MATIN in % ([6]; dosage 20 g/ha) | Pre-emergence action against POLCO in % [8] | Pre-emergence action against DIGSA in % ([12]; dosage 20 g/ha) | Post-emergence action against ABUTH in % ([13]; dosage 20 g/ha) | Post-emergence action at 20 g/ha against AMARE in % [15] | Post-emergence action against MATIN in % ([17]; dosage 5 g/ha) | Post-emergence action against MATIN in % ([17]; dosage 20 g/ha) | Post-emergence action against PHBPU in % ([18]; dosage 20 g/ha) | Post-emergence action against SETVI in % ([19]; dosage 5 g/ha) | Post-emergence action against SETVI in % ([19]; dosage 20 g/ha) | Post-emergence action against VERPE in % ([21]; 20 g/ha) | Post-emergence action against VIOTR in % ([22]; 5 g/ha) | Post-emergence action against VIOTR in % ([22]; 20 g/ha) | Post-emergence action against DIGSA in % [20] | Post-emergence action against DIGSA [20]
100%: Pre-emergence action against ABUTH (herbicidal activity) [1] | Pre-emergence action against AMARE in % [3, 23] | Pre-emergence action against AMARE in % [3, 24] | Pre-emergence action against MATIN in % ([6]; dosage 80 g/ha) | Pre-emergence action against VERPE in % [10] | Pre-emergence action against VIOTR in % ([11]; dosage 20 g/ha) | Pre-emergence action against VIOTR in % ([11]; dosage 80 g/ha) | Pre-emergence action against DIGSA in % ([12]; dosage 80 g/ha) | Post-emergence action against ECHCG in % [16]

From patent US12655116B2, “Substituted isophthalic acid diamides” (Bayer Aktiengesellschaft, priority 2020, dated 2026)
